Laboratory results: article PMC7834886 (Life Sciences, 2020)

What was measured:
[1] = preclinical and clinical studies; cited from earlier work
[2] = test system: ACE2^hi cells (ACE2 high-expressing HEK293T cells); assay: Cytotoxicity assay; type: cell-based; conditions: for cytotoxicity to cells: at 20 μM; for effect on activity (survival) of ACE2^hi cells: at concentrations below 100 μM
ACE2 = ACE2 (Homo sapiens, UniProt Q9BYF1); type: binding; conditions: mobile phase 10 mM Na2HPO4 / phosphate-buffer saline pH 7.4; flow rate 0.2 mL/min; 37 °C; UV 254 nm
Chain of ACE2 (Q9BYF1 18-805): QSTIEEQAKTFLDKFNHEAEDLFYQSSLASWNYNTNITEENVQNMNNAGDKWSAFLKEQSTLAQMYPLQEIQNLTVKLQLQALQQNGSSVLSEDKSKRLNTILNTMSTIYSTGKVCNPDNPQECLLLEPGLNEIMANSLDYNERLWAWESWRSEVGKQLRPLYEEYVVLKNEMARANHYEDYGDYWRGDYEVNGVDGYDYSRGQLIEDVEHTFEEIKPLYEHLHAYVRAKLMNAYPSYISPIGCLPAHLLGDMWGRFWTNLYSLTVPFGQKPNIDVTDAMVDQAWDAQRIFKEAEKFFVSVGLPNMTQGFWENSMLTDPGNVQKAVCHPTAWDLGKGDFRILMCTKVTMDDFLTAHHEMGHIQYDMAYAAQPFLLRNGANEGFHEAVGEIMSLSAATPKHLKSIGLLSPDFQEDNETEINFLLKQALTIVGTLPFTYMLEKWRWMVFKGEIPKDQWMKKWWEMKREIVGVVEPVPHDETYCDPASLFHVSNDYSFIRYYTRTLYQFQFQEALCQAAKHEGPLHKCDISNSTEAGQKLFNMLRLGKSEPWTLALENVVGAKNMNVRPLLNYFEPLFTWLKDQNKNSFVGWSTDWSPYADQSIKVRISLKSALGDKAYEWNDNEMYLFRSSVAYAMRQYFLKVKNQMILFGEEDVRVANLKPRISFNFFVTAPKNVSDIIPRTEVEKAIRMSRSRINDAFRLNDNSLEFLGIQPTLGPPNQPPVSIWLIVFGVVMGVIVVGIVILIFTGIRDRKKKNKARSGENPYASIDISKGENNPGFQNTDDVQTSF

Row | Structure (SMILES) | concentration in the lungs relative to plasma [1] | cytotoxicity to cells [2] | effect on activity (survival) of ACE2^hi cells ([2]; CCK-8, 24 h) | difference in cell viability versus control group ([2]; CCK-8, 24 h, at concentrations below 50 μM) | retention time (tR) on ACE2-CMC column (ACE2)
1 | CN(C)CCCN1c2ccccc2Sc2ccc(Cl)cc21 [Chl, Chlorpromazine] | 20–200 times higher than in plasma | no cytotoxicity |  |  | 
2 | O=C1CCc2ccc(OCCCCN3CCN(c4cccc(Cl)c4Cl)CC3)cc2N1 [Ari, aripiprazole] |  | no cytotoxicity | no significant effect |  | 
3 | CN1CCN(CCCN2c3ccccc3Sc3ccc(C(F)(F)F)cc32)CC1 [Tri, Trifluoperazine] |  | no cytotoxicity |  |  | 
4 | OCCOCCN1CCN(C2=Nc3ccccc3Sc3ccccc32)CC1 [Que, quetiapine] |  | no cytotoxicity |  | no significant difference | 
5 | CSc1ccc2c(c1)N(CCC1CCCCN1C)c1ccccc1S2 (stereo not drawn) [Thi, thioridazine] |  | no cytotoxicity |  |  | 51.604 min
6 | CCN(CC)CCNC(=O)c1cc(S(C)(=O)=O)ccc1OC [Tia, tiapride] |  | no cytotoxicity | no significant effect |  | 7.789 min
